Reference: ChEMBL document CHEMBL2074160, “Polyspecific drug and steroid clearance by an organic anion transporter of mammalian liver” (J Pharmacol Exp Ther, 1996)

Assays:
[1] = molecular target: T1, Solute carrier organic anion transporter family member 1A1 (Rattus norvegicus, UniProt P46720); assay: TP_TRANSPORTER: inhibition of Ouabain uptake (Ouabain: 100 uM, Prednisolone: 100 uM) in Xenopus laevis oocytes; assay type: functional, cell-based, Oocyte; parameters: scale not given: the % may be the effect or the level left; conditions: probe Ouabain (100 uM), read-out: Activity
T1 sequence (P46720 whole entry): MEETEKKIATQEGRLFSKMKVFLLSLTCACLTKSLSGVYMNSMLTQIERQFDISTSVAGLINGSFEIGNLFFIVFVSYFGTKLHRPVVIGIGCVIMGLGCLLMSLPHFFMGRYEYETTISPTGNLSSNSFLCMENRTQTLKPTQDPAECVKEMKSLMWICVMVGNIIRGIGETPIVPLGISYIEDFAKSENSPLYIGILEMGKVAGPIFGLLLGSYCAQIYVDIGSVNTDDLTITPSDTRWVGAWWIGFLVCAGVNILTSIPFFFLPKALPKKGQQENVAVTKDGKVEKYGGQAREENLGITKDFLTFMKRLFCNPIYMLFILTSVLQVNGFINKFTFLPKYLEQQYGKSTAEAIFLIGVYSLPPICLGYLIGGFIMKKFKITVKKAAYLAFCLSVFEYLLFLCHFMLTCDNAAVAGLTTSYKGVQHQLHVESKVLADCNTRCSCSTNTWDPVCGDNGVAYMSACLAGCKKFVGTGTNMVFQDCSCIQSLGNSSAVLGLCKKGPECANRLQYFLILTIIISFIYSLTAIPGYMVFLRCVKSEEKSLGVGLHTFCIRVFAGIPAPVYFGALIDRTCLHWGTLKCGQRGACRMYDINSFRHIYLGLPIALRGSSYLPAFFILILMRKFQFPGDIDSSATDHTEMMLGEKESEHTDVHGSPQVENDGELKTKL

[2] = molecular target: T1, Solute carrier organic anion transporter family member 1A1; assay: TP_TRANSPORTER: inhibition of Ouabain uptake (Ouabain: 100 uM, ICG: 100 uM) in Xenopus laevis oocytes; assay type: functional, cell-based; parameters: scale not given: the % may be the effect or the level left; conditions: oocyte
[3] = molecular target: T1, Solute carrier organic anion transporter family member 1A1; assay: TP_TRANSPORTER: inhibition of Ouabain uptake (Ouabain: 100 uM, Digitoxin: 100 uM) in Xenopus laevis oocytes; assay type: functional, cell-based, Oocyte; parameters: scale not given: the % may be the effect or the level left; conditions: probe Ouabain (100 uM), read-out: Activity
[4] = molecular target: T1, Solute carrier organic anion transporter family member 1A1; assay: TP_TRANSPORTER: inhibition of Ouabain uptake (Ouabain: 100 uM, E217betaG: 100 uM) in Xenopus laevis oocytes; assay type: functional, cell-based, Oocyte; parameters: scale not given: the % may be the effect or the level left; conditions: probe Ouabain (100 uM), read-out: Activity
[5] = molecular target: T1, Solute carrier organic anion transporter family member 1A1; assay: TP_TRANSPORTER: inhibition of Ouabain uptake (Ouabain: 100 uM, Prednisone: 100 uM) in Xenopus laevis oocytes; assay type: functional, cell-based; parameters: scale not given: the % may be the effect or the level left; conditions: oocyte
[6] = molecular target: T1, Solute carrier organic anion transporter family member 1A1; assay: (§1) TP_TRANSPORTER: uptake in Xenopus laevis oocytes; assay type: functional, cell-based, Oocyte
[7] = molecular target: T1, Solute carrier organic anion transporter family member 1A1; assay: TP_TRANSPORTER: inhibition of Ouabain uptake (Ouabain: 100 uM, Dexamethasone: 100 uM) in Xenopus laevis oocytes; assay type: functional, cell-based, Oocyte; parameters: scale not given: the % may be the effect or the level left; conditions: probe Ouabain (100 uM), read-out: Activity
[8] = molecular target: T1, Solute carrier organic anion transporter family member 1A1; assay: TP_TRANSPORTER: inhibition of Ouabain uptake (Ouabain: 100 uM, Digoxigenin: 100 uM) in Xenopus laevis oocytes; assay type: functional, cell-based, Oocyte; parameters: scale not given: the % may be the effect or the level left; conditions: probe Ouabain (100 uM), read-out: Activity
[9] = molecular target: T1, Solute carrier organic anion transporter family member 1A1; assay: TP_TRANSPORTER: inhibition of Ouabain uptake (Ouabain: 100 uM, Testosterone: 100 uM) in Xenopus laevis oocytes; assay type: functional, cell-based, Oocyte; parameters: scale not given: the % may be the effect or the level left; conditions: probe Ouabain (100 uM), read-out: Activity
[10] = molecular target: T1, Solute carrier organic anion transporter family member 1A1; assay: TP_TRANSPORTER: inhibition of Ouabain uptake (Ouabain: 100 uM, BSP: 100 uM) in Xenopus laevis oocytes; assay type: functional, cell-based, Oocyte; parameters: scale not given: the % may be the effect or the level left; conditions: probe Ouabain (100 uM), read-out: Activity
[11] = molecular target: T1, Solute carrier organic anion transporter family member 1A1; assay: TP_TRANSPORTER: inhibition of Ouabain uptake (Ouabain: 100 uM, Cortisol: 100 uM) in Xenopus laevis oocytes; assay type: functional, cell-based, Oocyte; parameters: scale not given: the % may be the effect or the level left; conditions: probe Ouabain (100 uM), read-out: Activity
[12] = molecular target: T1, Solute carrier organic anion transporter family member 1A1; assay: TP_TRANSPORTER: inhibition of Ouabain uptake (Ouabain: 100 uM, E1S: 100 uM) in Xenopus laevis oocytes; assay type: functional, cell-based; parameters: scale not given: the % may be the effect or the level left; conditions: oocyte
[13] = molecular target: T1, Solute carrier organic anion transporter family member 1A1; assay: TP_TRANSPORTER: inhibition of Ouabain uptake (Ouabain: 100 uM, beta-Estradiol: 100 uM) in Xenopus laevis oocytes; assay type: functional, cell-based, Oocyte; parameters: scale not given: the % may be the effect or the level left; conditions: probe Ouabain (100 uM), read-out: Activity
[14] = molecular target: T1, Solute carrier organic anion transporter family member 1A1; assay: TP_TRANSPORTER: inhibition of Ouabain uptake (Ouabain: 100 uM, Rose bengal: 100 uM) in Xenopus laevis oocytes; assay type: functional, cell-based; parameters: scale not given: the % may be the effect or the level left; conditions: oocyte
[15] = molecular target: T1, Solute carrier organic anion transporter family member 1A1; assay: TP_TRANSPORTER: inhibition of Ouabain uptake (Ouabain: 100 uM, Aldosterone: 100 uM) in Xenopus laevis oocytes; assay type: functional, cell-based; parameters: scale not given: the % may be the effect or the level left; conditions: oocyte
[16] = molecular target: T1, Solute carrier organic anion transporter family member 1A1; assay: TP_TRANSPORTER: inhibition of Ouabain uptake (Ouabain: 100 uM, Estradiol-3-glucuronide: 100 uM) in Xenopus laevis oocytes; assay type: functional, cell-based, Oocyte; parameters: scale not given: the % may be the effect or the level left; conditions: probe Ouabain (100 uM), read-out: Activity
[17] = molecular target: T1, Solute carrier organic anion transporter family member 1A1; assay: TP_TRANSPORTER: inhibition of Ouabain uptake (Ouabain: 100 uM, Estrone-3-glucuronide: 100 uM) in Xenopus laevis oocytes; assay type: functional, cell-based, Oocyte; parameters: scale not given: the % may be the effect or the level left; conditions: probe Ouabain (100 uM), read-out: Activity
[18] = molecular target: T1, Solute carrier organic anion transporter family member 1A1; assay: TP_TRANSPORTER: inhibition of Ouabain uptake (Ouabain: 100 uM, Corticosterone: 100 uM) in Xenopus laevis oocytes; assay type: functional, cell-based; parameters: scale not given: the % may be the effect or the level left; conditions: oocyte
[19] = substrate: C[C@]12CC[C@@H]3c4ccc(OS(=O)(=O)O)cc4CC[C@H]3[C@@H]1CCC2=O; assay: as §1; assay type: functional, cell-based, Oocyte
[20] = substrate: C[C@]12CC[C@@H]3c4ccc(O)cc4CC[C@H]3[C@@H]1CC[C@@H]2O[C@@H]1O[C@H](C(=O)O)[C@@H](O)[C@H](O)[C@H]1O; assay: as §1; assay type: functional, cell-based, Oocyte
[21] = substrate: C[C@]12CCC(=O)C=C1CC[C@@H]1[C@@H]2[C@@H](O)C[C@@]2(C)[C@H]1CC[C@]2(O)C(=O)CO; assay: as §1; assay type: functional, cell-based, Oocyte
[22] = substrate: C[C@]12CCC(=O)C=C1CC[C@@H]1[C@@H]2[C@@H](O)C[C@]2(C=O)[C@@H](C(=O)CO)CC[C@@H]12; assay: as §1; assay type: functional, cell-based, Oocyte

How did the activity at 100 µM [1] turn out when `C[C@]12C=CC(=O)C=C1CC[C@@H]1[C@@H]2[C@@H](O)C[C@@]2(C)[C@H]1CC[C@]2(O)C(=O)CO` [PREDNISOLONE] was run?
The activity at 100 µM was 40%.

How did the Activity [2] turn out when `CC1(C)C(/C=C/C=C/C=C/C=C2/N(CCCCS(=O)(=O)[O-])c3ccc4ccccc4c3C2(C)C)=[N+](CCCCS(=O)(=O)[O-])c2ccc3ccccc3c21.[Na+]` [INDOCYANINE GREEN] was run?
Its Activity is 6%.

Which activity at 100 µM [3] does the source give for `C[C@H]1O[C@@H](O[C@H]2[C@@H](O)C[C@H](O[C@H]3[C@@H](O)C[C@H](O[C@H]4CC[C@@]5(C)[C@H](CC[C@@H]6[C@@H]5CC[C@]5(C)[C@@H](C7=CC(=O)OC7)CC[C@]65O)C4)O[C@@H]3C)O[C@@H]2C)C[C@H](O)[C@@H]1O` [DIGITOXIN] here?
Its activity at 100 µM is 29%.

How did the activity at 100 µM [4] turn out when `C[C@]12CC[C@@H]3c4ccc(O)cc4CC[C@H]3[C@@H]1CC[C@@H]2O[C@@H]1O[C@H](C(=O)O)[C@@H](O)[C@H](O)[C@H]1O` [ESTRADIOL 17B GLUCURONIDE] was run?
Its activity at 100 µM is 16%.

With `C[C@]12C=CC(=O)C=C1CC[C@@H]1[C@@H]2C(=O)C[C@@]2(C)[C@H]1CC[C@]2(O)C(=O)CO` [PREDNISONE] as the molecule, how does the Activity [5] read?
Its Activity is 34%.

Which Activity ([6]; oocyte) does the source give for `C[C@@H]1C[C@H]2[C@@H]3CCC4=CC(=O)C=C[C@]4(C)[C@@]3(F)[C@@H](O)C[C@]2(C)[C@@]1(O)C(=O)CO` [DEXAMETHASONE] here?
Its Activity is “substrate [+]”.

And the activity at 100 µM [7]?
The activity at 100 µM was 26%.

For `C[C@]12CC[C@H](O)C[C@H]1CC[C@@H]1[C@@H]2C[C@@H](O)[C@]2(C)[C@@H](C3=CC(=O)OC3)CC[C@]12O` [DIGOXIGENIN], which activity at 100 µM [8] is on record?
The activity at 100 µM was 19%.

With `C[C@]12CC[C@H]3[C@@H](CCC4=CC(=O)CC[C@@]43C)[C@@H]1CC[C@@H]2O` [TESTOSTERONE] as the molecule, how does the activity at 100 µM [9] read?
Its activity at 100 µM is 16%.

How did the activity at 100 µM [10] turn out when `O=C1OC(c2ccc(O)c(S(=O)(=O)O)c2)(c2ccc(O)c(S(=O)(=O)O)c2)c2c(Br)c(Br)c(Br)c(Br)c21` [SULFOBROMOPHTHALEIN SODIUM] was run?
Its activity at 100 µM is 6%.

For `C[C@]12CCC(=O)C=C1CC[C@@H]1[C@@H]2[C@@H](O)C[C@@]2(C)[C@H]1CC[C@]2(O)C(=O)CO` [HYDROCORTISONE], which activity at 100 µM [11] is on record?
Its activity at 100 µM is 19%.

Which Activity [12] does the source give for `C[C@]12CC[C@@H]3c4ccc(OS(=O)(=O)O)cc4CC[C@H]3[C@@H]1CCC2=O` [ESTRONE SULFURIC ACID] here?
Its Activity is 10%.

`C[C@]12CC[C@@H]3c4ccc(O)cc4CC[C@H]3[C@@H]1CC[C@@H]2O` [ESTRADIOL] was tested. Which activity at 100 µM [13] did it give?
Its activity at 100 µM is 40%.

With `O=C([O-])c1c(Cl)c(Cl)c(Cl)c(Cl)c1-c1c2cc(I)c(=O)c(I)c-2oc2c(I)c([O-])c(I)cc12.[Na+].[Na+]` [ROSE BENGAL SODIUM] as the molecule, how does the Activity [14] read?
The Activity was 4%.

Which Activity [15] does the source give for `C[C@]12CCC(=O)C=C1CC[C@@H]1[C@@H]2[C@@H](O)C[C@]2(C=O)[C@@H](C(=O)CO)CC[C@@H]12` [ALDOSTERONE] here?
The Activity was 10%.

For `C[C@]12CC[C@@H]3c4ccc(O[C@@H]5O[C@H](C(=O)O)[C@@H](O)[C@H](O)[C@H]5O)cc4CC[C@H]3[C@@H]1CC[C@@H]2O`, which activity at 100 µM [16] is on record?
The activity at 100 µM was 27%.

Which Km ([6]; Xenopus laevis oocytes) does the source give for `C[C@@H]1O[C@@H](O[C@H]2C[C@@H](O)[C@]3(CO)[C@H]4[C@H](O)C[C@]5(C)[C@@H](C6=CC(=O)OC6)CC[C@]5(O)[C@@H]4CC[C@]3(O)C2)[C@H](O)[C@H](O)[C@H]1O` [OUABAIN] here?
Its Km is 1700 µM.

How did the activity at 100 µM [17] turn out when `C[C@]12CC[C@@H]3c4ccc(O[C@@H]5O[C@H](C(=O)O)[C@@H](O)[C@H](O)[C@H]5O)cc4CC[C@H]3[C@@H]1CCC2=O` was run?
Its activity at 100 µM is 24%.

For `C[C@]12C[C@H](O)[C@H]3[C@@H](CCC4=CC(=O)CC[C@@]43C)[C@@H]1CC[C@@H]2C(=O)CO` [CORTICOSTERONE], which Activity [18] is on record?
Its Activity is 15%.

B1: Solute carrier organic anion transporter family member 1A1 (Rattus norvegicus) (protein)
chain: T1 sequence (P46720 whole entry)
For B1, which Km [19] is on record?
The Km was 4.5 µM.

What about the Km [20] of the same molecule?
Its Km is 3 µM.

And the Km [21]?
Its Km is 13 µM.

And the Km [22]?
Its Km is 0.015 µM.
